From paper PMC4745926, “Absorption, Metabolism, and Excretion by Freely Moving Rats of 3,4-DHPEA-EDA and Related Polyphenols from Olive Fruits (Olea europaea)” (Journal of Nutrition and Metabolism, 2016)
Entries after “also recorded” stand apart in the source; their conditions may differ.

How the values were obtained:
[1] = Urinary excretion after intravenous administration; type: in vivo, Wistar ST rats
Protocol: SPF Wistar ST rats (6 weeks of age, male, 180 ± 20 g of body weight) were purchased from Japan SLC Inc. (Hamamatsu, Japan). The rats were housed in an air-conditioned room at 22 ± 2°C under cycles of 12 hours dark and 12 hours light and given free access to a commercial diet and water for a week. The rats were then fasted for over 16 hours before the experiments. The present study was approved by the Animal Care and Use Committee at Kagawa University, and the rat treatment conformed to the Rules of Animal Experiments at Kagawa University. 3,4-[…] (300 mg/kg body weight; 936.51 μmol/kg) dissolved in 50% polyethylene glycol aqueous solution was administered orally via a stomach tube to the portal vein cannulated rats. Blood samples (450 μL) were then collected using a heparinized syringe attached to the cannula before administration and 5, 15, 30, 60, 120, and 240 min after administration. Urine was also collected before administration and 0 to 2 h and 2 to 4 h after administration. For intravenous administration, 3,4-[…] (10 mg/kg; 31.22 μmol/kg) was injected into the jugular vein, and blood (450 μL) was collected using a heparinized syringe before administration and 5, 15, 30, 60, 120, and 240 min after administration via the jugular vein cannula. The blood (450 μL) collected was immediately cooled on ice and centrifuged at 15,000 rpm for 5 min at 4°C to obtain over 200 μL plasma. Urine was also collected before administration and 0 to 2 h and 2 to 4 h after administration. Bile was collected via the bile duct cannula before administration and 0 to 2 h and 2 to 4 h after intravenous administration. The collected plasma, urine, and bile were immediately stored in an ice box until further analyses. HT (oral administration: 100 mg/kg; 648.66 μmol/kg, intravenous administration: 10 mg/kg; 64.87 μmol/kg) and Ole (oral administration: 300 mg/kg; 555.02 μmol/kg, intravenous administration: 10 mg/kg; 18.50 μmol/kg) were investigated using the same method as described above. Metabolites were deconjugated by using β-glucuronidase (500 U) and sulfatase (50 U) in 50 μL 625 mM MOPS (pH 6.8), which was added to 200 μL of plasma, urine, or bile. The mixture was incubated for 45 min at 37°C and subjected to extraction using QuEChERS [33]. […] Shimadzu, Kyoto, Japan) equipped with a Shim-pack XR-ODS column (3.0 mm I.D. × 100 mm; Shimadzu, Kyoto, Japan) at 40°C with a mobile phase of 0.5% TFA-1% acetonitrile aqueous solution (A) and 0.5% TFA-75% acetonitrile aqueous solution (B). The elution conditions are described as follows: isocratic elution of 0% B was maintained for 4.0 min; linear gradient 0 to 4% B, 4.0-4.5 min; linear gradient 4.0-16.0% B, 4.5-16.0 min; linear gradient 16.0-100% B, 16.0-25.0 min; isocratic elution of 100% B, 25.0-26.0 min; and linear gradient 100 to 0% B, 26.0-26.1 min, with a flow rate of 0.5 mL/min. Injection volume was 50 μL. All eluted peaks were detected at 279 nm with a diode array detector (SPD-M20A; Shimadzu, Kyoto, Japan).

[2] = Recovery of 3,4-DHPEA-EDA spiked into rat plasma; type: in vitro ADME; details: recovery yield check
Protocol: After oral administration of 3,4-DHPEA-EDA, HT (27.7 AUC0→4 h-i.g./Dosei.g.), HVAOH (4.2 AUC0→4 h-i.g./Dosei.g.), and HVA (4.5 AUC0→4 h-i.g./Dosei.g.) were detected in the portal plasma. Low absorption of 3,4-DHPEA-EDA is reported in some papers. […] Plasma components such as serum albumin, serum lipoprotein, and glycoprotein may have bound 3,4-DHPEA-EDA and hindered its detection. 3,4-DHPEA-EDA as a dialdehyde form might quickly bind to proteins bearing primary amines such as globulins, albumins, and other functional proteins in blood plasma, as malondialdehyde does. […] To our knowledge, this is the first report of the formation of HVAOH from 3,4-DHPEA-EDA.

| SMILES | Detection of intact Ole and metabolites in urine ([1]; listed as Ole) | Detection of intact 3,4-DHPEA-EDA in urine [1] | HT in urine [1] | HVA in urine [1] | HVAOH in urine [1] | Total metabolites observed in the urine [1] [%] | Recovery of 3,4-DHPEA-EDA spiked into rat plasma [2] |
| --- | --- | --- | --- | --- | --- | --- | --- |
| C/C=C1/[C@H](O[C@@H]2O[C@H](CO)[C@@H](O)[C@H](O)[C@H]2O)OC=C(C(=O)OC)[C@H]1CC(=O)OCCc1ccc(O)c(O)c1 [Oleuropein, reference compound] | not detected at all |  |  |  |  |  |  |
| CC=C(C=O)C(CC=O)CC(=O)OCCc1ccc(O)c(O)c1 (stereo not shown) [3,4-DHPEA-EDA, 3,4-dihydroxyphenylethyl elenolate dialdehydic form] |  | not observed; also recorded: not detected | 6.3 % of dose | 2.6 % of dose | 4.6 % of dose | 13 | could not be detected |
